Among the data in patent publication US12227520B2 (priority 2019, dated 2025) are EC50 and CC50 values, retold here.

Where two headings read alike, the source gives them in different places.

For one series, the system named is HIV-1 (IIIB). Nature of the series: Antiviral assay in MT-4 cells (HIV MT-4 antiviral assay). As to conditions: Human immunodeficiency virus 1, IIIB, MT4, 120 h, HIV-1 (IIIB) in MT-4 cells, 5 days incubation; read-out: EC50. The class given is cell-based. The method, boiled down:
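Read-out is CellTiter-Glo chemiluminescence after 5-day culture at 37° C, giving protection of MT-4 cells from HIV-1 IIIB cytopathicity. Compounds tested in 1:3 dilution series in complete RPMI; controls were no drug, mock infection and 5 μM AZT.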

Series [1] in a line: Cytotoxicity assay in MT-4 cells. The class given is cell-based, human. Particulars: human, uninfected MT-4 cells, 5 days incubation; read-out: CC50. The method, boiled down:
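For cytotoxicity, uninfected MT-4 cells were incubated with compounds 5 days at 37 °C, with 10 μM puromycin marking base cytotoxicity. Parallel plates used HIV-1 IIIB-infected (1:250 stock dilution) or mock cells with 5 μM AZT and no-drug controls. Read-out: CellTiter-Glo chemiluminescence.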

Another series concerns pLai RLuc reporter virus. Description: microbe, parasite or virus in culture. The class given is cell-based, HIV. Particulars: Human immunodeficiency virus 1, 72 h. The method, boiled down: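 Read-out is Renilla luciferase after 72 h at 37 °C in MT-4 cells infected 2 h beforehand with pLai RLuc reporter virus; compounds diluted 1:3.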
The mark [2] stands for this setting: read-out: Antiviral Serum Shift RLuc 50% HS, HS/CCM (RPMI media, 10% FBS, 50% HS, 1% P/S), 72-h incubation.
The mark [3] stands for this setting: read-out: Antiviral Serum Shift RLuc CCM, CCM (RPMI media, 10% FBS, 1% P/S), 72-h incubation.

As a reminder, the CC50 is the concentration giving 50% cytotoxicity. Regarding `C[C@@H]1CC[C@H](C)N2C[C@H]1n1cc(C(=O)NCc3c(F)cc(F)cc3F)c(=O)c(O)c1C2=O` [Example 174, (3S,6R,7S)-12-hydroxy-3,6-dimethyl-1,11-dioxo-N-(2,4,6-trifluorobenzyl)-1,4,5,6,7,11-hexahydro-3H-2,7-methanopyrido[1,2-a][1,4]diazonine-10-carboxamide], the EC50 in the series with HIV-1 (IIIB) was found to be 1.26 nM; in the series on pLai RLuc reporter virus (setting [2]) it was 58.4 nM; with pLai RLuc reporter virus (setting [3]), 0.346 nM. In series [1], the CC50 at 5 days turned out to be 11400 nM.

Consider `O=C(NCc1c(F)cc(F)cc1F)c1cn2c(c(O)c1=O)C(=O)N1CC[C@@H](O)CC[C@H]2C1` [Example 83-1, (5S,8S)-5,13-dihydroxy-1,12-dioxo-N-(2,4,6-trifluorobenzyl)-1,3,4,5,6,7,8,12-octahydro-2,8-methanopyrido[1,2-a][1,4]diazecine-11-carboxamide], for which the figures for the EC50 in the series on HIV-1 (IIIB), in the series on pLai RLuc reporter virus (setting [2]) and in the series on pLai RLuc reporter virus (setting [3]) were 39 nM, 7.08 nM and 8.19 nM, respectively. Besides, in series [1], the CC50 at 5 days was more than 50000 nM.

With `O=C(NCc1c(F)cc(F)cc1F)c1cn2c(c(O)c1=O)C(=O)N1CC[C@H](F)CC[C@H]2C1` [Example 81-1, (5R,8S)-5-fluoro-13-hydroxy-1,12-dioxo-N-(2,4,6-trifluorobenzyl)-1,3,4,5,6,7,8,12-octahydro-2,8-methanopyrido[1,2-a][1,4]diazecine-11-carboxamide], the EC50 with HIV-1 (IIIB) is 1.96 nM; with pLai RLuc reporter virus (setting [2]), 0.649 nM; with pLai RLuc reporter virus (setting [3]), 0.466 nM. Moreover, the 50% cytotoxic concentration (CC50) at 5 days in series [1] worked out at 23900 nM.

Take `O=C(NCc1ccc(F)cc1F)c1cn2c(c(O)c1=O)C(=O)N1CCc3cc(F)c(F)cc3[C@H]2C1` (single isomer, unassigned) [Example 111-1]: the EC50 worked out at 2.01 nM in the series on HIV-1 (IIIB), 7.12 nM in the series with pLai RLuc reporter virus (setting [2]) and 0.447 nM in the series with pLai RLuc reporter virus (setting [3]). The CC50 at 5 days in series [1] worked out at 5910 nM.

As for `O=C(NCc1ccc(F)cc1F)c1cn2c(c(O)c1=O)C(=O)N1CC3CC3CC2C1` (single isomer, unassigned) [Example 42-1, N-(2,4-difluorobenzyl)-5-hydroxy-4,6-dioxo-1,1a,2,4,6,10,11,11a-octahydro-3,10-methanocyclopropa[f]pyrido[1,2-a][1,4]diazonine-7-carboxamide], the results for the EC50 with HIV-1 (IIIB), with pLai RLuc reporter virus (setting [2]) and in the series with pLai RLuc reporter virus (setting [3]) were 1.6 nM, 1.34 nM and 0.28 nM, respectively. Also, in series [1], the CC50 at 5 days is 7490 nM.

`O=C(NCc1ccc(F)cc1F)c1cn2c(c(O)c1=O)C(=O)N1CCCOC[C@@H]2C1` [Example 1-1, (S)-N-(2,4-difluorobenzyl)-13-hydroxy-1,12-dioxo-1,4,5,7,8,12-hexahydro-3H-2,8-methanopyrido[1,2-d][1,4,7]oxadiazecine-11-carboxamide]: the EC50 in the series on HIV-1 (IIIB) is 16.5 nM; in the series with pLai RLuc reporter virus (setting [2]), 4.85 nM; in the series with pLai RLuc reporter virus (setting [3]), 3.64 nM. Besides, the CC50 at 5 days in series [1] was more than 50000 nM.

With `O=C(NCc1c(F)cc(F)cc1F)c1cn2c(c(O)c1=O)C(=O)N1Cc3cc(F)c(F)cc3C[C@H]2C1` [Example 88, (6S)-9,10-difluoro-1-hydroxy-2,14-dioxo-N-(2,4,6-trifluorobenzyl)-2,7,12,14-tetrahydro-6H-6,13-methanobenzo[f]pyrido[1,2-a][1,4]diazonine-3-carboxamide], the EC50 amounted to 1.61 nM in the series with HIV-1 (IIIB), 1.62 nM with pLai RLuc reporter virus (setting [2]) and 0.269 nM in the series with pLai RLuc reporter virus (setting [3]). For the same compound, in series [1], the CC50 at 5 days was more than 23400 nM.

For `O=C(NCc1c(F)cc(F)cc1F)c1cn2c(c(O)c1=O)C(=O)N1C[C@@H]2CS(=O)(=O)c2ccccc21` [Example 96, (6R)-1-hydroxy-2,14-dioxo-N-(2,4,6-trifluorobenzyl)-2,6,7,14-tetrahydro-6,13-methanobenzo[b]pyrido[2,1-f][1,4,7]thiadiazonine-3-carboxamide 8,8-dioxide], the EC50 was found to be 18.1 nM in the series with HIV-1 (IIIB), 3.33 nM with pLai RLuc reporter virus (setting [2]) and 3.09 nM with pLai RLuc reporter virus (setting [3]). Also, the CC50 at 5 days in series [1] was more than 50000 nM.

Take `O=C(NCc1c(F)cc(F)cc1F)c1cn2c(c(O)c1=O)C(=O)N1C[C@@H]2CCc2sccc21` [Example 104-1, (11S)-6-hydroxy-5,7-dioxo-N-(2,4,6-trifluorobenzyl)-5,7,12,13-tetrahydro-11H-4,11-methanopyrido[1,2-a]thieno[3,2-e][1,4]diazonine-8-carboxamide]: the EC50 in the series with HIV-1 (IIIB) is 1.48 nM; in the series with pLai RLuc reporter virus (setting [2]), 1.99 nM; in the series on pLai RLuc reporter virus (setting [3]), 0.323 nM. The cytotoxic concentration (CC50) at 5 days in series [1] was found to be 11900 nM.

`O=C(NCc1c(F)cc(F)cc1F)c1cn2c(c(O)c1=O)C(=O)N1CCC[C@H](F)[C@H]2C1` [Example 15-2, (6S, 7R)-6-fluoro-12-hydroxy-1,11-dioxo-N-(2,4,6-trifluorobenzyl)-1,4,5,6,7,11-hexahydro-3H-2,7-methanopyrido[1,2-a][1,4]diazonine-10-carboxamide]: the EC50 in the series with HIV-1 (IIIB) was determined as 1.4 nM; with pLai RLuc reporter virus (setting [2]), 4.32 nM; in the series with pLai RLuc reporter virus (setting [3]) it was 0.29 nM. Further, the CC50 at 5 days in series [1] turned out to be 15300 nM.

`C[C@H]1CC[C@H](C)N2C[C@H]1n1cc(C(=O)NCc3c(F)cc(F)cc3F)c(=O)c(O)c1C2=O` [Example 186, (3S,6S,7S)-12-hydroxy-3,6-dimethyl-1,11-dioxo-N-(2,4,6-trifluorobenzyl)-1,4,5,6,7,11-hexahydro-3H-2,7-methanopyrido[1,2-a][1,4]diazonine-10-carboxamide]: the EC50 in the series on HIV-1 (IIIB) amounted to 0.612 nM; with pLai RLuc reporter virus (setting [2]), 60.2 nM; in the series on pLai RLuc reporter virus (setting [3]), 0.306 nM. In series [1], the CC50 at 5 days amounted to 11400 nM.

For `C[C@]12CN(CCc3cc(F)c(F)cc31)C(=O)c1c(O)c(=O)c(C(=O)NCc3c(F)cc(F)cc3F)cn12` (single isomer, unassigned) [Example 120-2], the EC50 with HIV-1 (IIIB) was more than 59.4 nM; in the series with pLai RLuc reporter virus (setting [2]), 239 nM; in the series on pLai RLuc reporter virus (setting [3]), 14 nM. In addition, the CC50 at 5 days in series [1] worked out at 11100 nM.

As for `CC[C@@H]1CCC[C@H]2CN1C(=O)c1c(O)c(=O)c(C(=O)NCc3c(F)cc(F)cc3F)cn12` [Example 130-1, (3R,7S)-3-ethyl-12-hydroxy-1,11-dioxo-N-(2,4,6-trifluorobenzyl)-1,4,5,6,7,11-hexahydro-3H-2,7-methanopyrido[1,2-a][1,4]diazonine-10-carboxamide], the results for the EC50 with HIV-1 (IIIB), in the series on pLai RLuc reporter virus (setting [2]) and with pLai RLuc reporter virus (setting [3]) were 1.53 nM, 4.17 nM and 0.213 nM, respectively. In addition, the CC50 at 5 days in series [1] came out at 12200 nM.

As for `C[C@H]1CCC[C@H]2CN1C(=O)c1c(O)c(=O)c(C(=O)NCc3ccc(F)cc3F)cn12` [Example 52-4, (3S, 7S)—N-(2,4-difluorobenzyl)-12-hydroxy-3-methyl-1,11-dioxo-1,4,5,6,7,11-hexahydro-3H-2,7-methanopyrido[1,2-a][1,4]diazonine-10-carboxamide], the values for the EC50 in the series with HIV-1 (IIIB), in the series on pLai RLuc reporter virus (setting [2]) and in the series with pLai RLuc reporter virus (setting [3]) were 1.33 nM, 7.54 nM and 0.218 nM, respectively. For the same compound, the CC50 at 5 days in series [1] came to 10300 nM.

Regarding `O=C(NCc1ccc(F)c(Cl)c1F)c1cn2c(c(O)c1=O)C(=O)N1Cc3cc(F)c(F)cc3C[C@@H]2C1` [Example 139-1, (6R)—N-(3-chloro-2,4-difluorobenzyl)-9,10-difluoro-1-hydroxy-2,14-dioxo-2,7,12,14-tetrahydro-6H-6,13-methanobenzo[f]pyrido[1,2-a][1,4]diazonine-3-carboxamide], the EC50 with HIV-1 (IIIB) was found to be 14.8 nM; in the series with pLai RLuc reporter virus (setting [2]) it was 84.3 nM; in the series on pLai RLuc reporter virus (setting [3]) it was 3.93 nM. Besides, the half-maximal cytotoxic concentration (CC50) at 5 days in series [1] is more than 50000 nM.
